“Also recorded” adds a separate entry of the source. Where a name gives a salt, the structure may show the parent alone. Read-outs that look alike come from different tables or passages of the source.
How the values were obtained:
[1] = Solid-state stress stability test (humidity 90 % RH); conditions: for Initial (%) Degradant / Initial (%) Total Related substances: Table 9, initial; for Remarks: state of the solid; for Change in Quality (%) 90 % RH (4 weeks) Degradant / Change in Quality (%) 90 % RH (4 weeks) Purity: Table 12 summary
[2] = Solid-state stress stability test (temperature 60 °C); conditions: for total related substances increased after 1 month / After 1 Month (%) Degradant / After 1 Month (%) Total Related substances / change in appearance, change in the color of the solid / Change (%) Degradant / Remarks: 60 °C; for After 1 Month (%) Degradant / After 1 Month (%) Total Related substances / change in appearance, change in the color of the solid / Remarks: 1 month; for Change (%) Degradant: 1 month vs initial; for Remarks: appearance; for Initial (%) Degradant / Initial (%) Total Related substances: Table 8, initial; for Change in Quality (%) 60 °C (4 weeks) Purity / Change in Quality (%) 60 °C (4 weeks) Degradant: Table 12 summary
[3] = Photostability test, visible light (1.2 Mlux·hr) exposure; conditions: for Initial (%) Degradant / Initial (%) Total Related substances: Table 11, initial; for After (%) Degradant / After (%) Total Related substances: Table 11 under heading Visible Light (1.2 Mlux-hr) Exposure Test; for Change (%) Degradant: Table 11, after exposure vs initial; for Change in Quality (%) Light (Visible) Degradant: Table 12 summary
Description: (§1) A photostability comparative test was conducted on each of the above-mentioned prepared tegoprazan acid addition salts. The test was conducted by exposing the sample to light with an energy of 200 W hr/m^2 of ultraviolet light and 1.2 Mlux hr of visible light in accordance with The International Council for Harmonisation of Technical Requirements for Pharmaceuticals for Human Use (ICH) guideline, with the samples packaged in a single PE bag and spread thinly enough to ensure exposure to the light source, taking humidity stability into consideration. The purity of the acid addition salts and the change in the amount of degradants at the initial time point and after exposure to ultraviolet light or visible light were measured by HPLC.

[4] = Photostability test, ultraviolet light (200 W·hr/m2) exposure; conditions: for After Ultraviolet Light Exposure (200 W hr/m2)(%) Degradant / After Ultraviolet Light Exposure (200 W hr/m2)(%) Total Related substances: Table 10, UV 200 W·hr/m2, PE bag; for Change (%) Degradant: Table 10, after UV exposure vs initial; for Initial (%) Degradant / Initial (%) Total Related substances: Table 10, initial
Description: as §1

[5] = Solid-state accelerated stability test (40 ± 2 °C/RH 75 ± 5 %); conditions: for Change (%) Degradant: 1 month vs initial; for Initial (%) Degradant: degradant of Formula 4; for Change in Quality (%) Accelerated (4 weeks) Purity / Change in Quality (%) Accelerated (4 weeks) Degradant: Table 12 summary
Description: Operation and Calculation: The blank solution, standard solution, and test solution were sequentially tested under the instrument operating conditions according to the liquid chromatography method in the General Test Methods of the 12th Edition of the Korean Pharmacopoeia, and the amount of related substances was calculated using the following equation. Amount of each related; substance (%) = (AT)/(AS) × (CS)/(CT) × (Molecular weight; of the sample)/(Molecular weight; of the standard; product) × P × (1)/(RR; F) [formula] AT = Area of each related substance peak obtained from the test solution AS = Area of the tegoprazan peak obtained from the standard solution CS = Concentration of standard solution (mg/mL) CT = Concentration of test solution (mg/mL) P = Purity/Assay/Potency (%) of standard product RRF = Relative response factor (1.0)
A solid-state stability comparative test was conducted on each of the above-mentioned prepared tegoprazan acid addition salts. The stability comparative test was conducted for 1 month under the conditions shown in Table 6 below in accordance with The International Council for Harmonisation of Technical Requirements for Pharmaceuticals for Human Use (ICH) guideline, and the purity of the acid addition salt, total related substances, and the content of degradants were measured by HPLC at the initial time point and after 1 month. Total related substances and degradants were measured according to the related substance test method (HPLC).

[6] = Liquid stability comparative test (20 mg/mL in purified water, 40 °C, 24 hours, HPLC); format: physicochemical; conditions: for After 24 hours Purity (%) / Initial Purity (%) / After 24 hours Degradant (%) / Initial Degradant (%): 20 mg/mL in purified water; for After 24 hours Purity (%) / After 24 hours Degradant (%): 40 °C; for Initial Purity (%) / Initial Degradant (%): initial time point; for After 24 hours Degradant (%) / Initial Degradant (%): degradant of Formula 4; for solid precipitation / solution state: stored at 40 °C for 24 hours
Description: The analysis conditions are as follows.
Each sample was dissolved in purified water to prepare a solution with a concentration of 20 mg/mL, stored at an external temperature of 40 °C, and analyzed by HPLC at the initial time point and after 24 hours to measure purity, and the change in the generated degradant (Formula 4) was measured. The analysis of total related substances and degradants was performed by taking a liquid from a solution prepared at a concentration of 20 mg/mL, diluting it to a concentration of 4 mg/mL with the diluent of the related substance test method (HPLC), and measuring it as a test solution, and analyzing it according to the related substance test method (HPLC).

[7] = 40 ± 2 °C / RH 75 ± 5 %, 1 month

Cc1nc2c(O[C@H]3CCOc4cc(F)cc(F)c43)cc(C(=O)N(C)C)cc2[nH]1 [Hydrobromide Salt]
After 1 Month (%) Degradant ([1]; 90 % RH, 1 month): 3.698% | After 1 Month (%) Total Related substances ([1]; 90 % RH, 1 month): 3.922% | Change (%) Degradant ([1]; 90 % RH, 1 month vs initial): 1.726% | Initial (%) Degradant [1]: 1.972% | Initial (%) Total Related substances [1]: 2.173% | total related substances increased after 1 month [2]: ≥ 5.0% | After 1 Month (%) Degradant [2]: 7.787% | After 1 Month (%) Total Related substances [2]: 8.905% | change in appearance, change in the color of the solid [2]: change in appearance | Change (%) Degradant [2]: 5.815% | Remarks [2]: Discolorat ion | Initial (%) Degradant [2]: 1.972% | Initial (%) Total Related substances [2]: 2.173% | Remarks ([3]; Table 11, after exposure, appearance): Discolorat ion | Initial (%) Degradant [3]: 1.972% | Initial (%) Total Related substances [3]: 2.173% | After (%) Degradant [3]: 1.956% | After (%) Total Related substances [3]: 2.227% | changes in appearance ([3]; visible light exposure): changes in appearance | After Ultraviolet Light Exposure (200 W hr/m2)(%) Degradant [4]: 2.028% | After Ultraviolet Light Exposure (200 W hr/m2)(%) Total Related substances [4]: 2.265% | Change (%) Degradant [4]: 0.056% | Initial (%) Degradant [4]: 1.972% | Initial (%) Total Related substances [4]: 2.173% | After 1 Month (%) Degradant [5, 7]: 2.188% | After 1 Month (%) Total Related substances [5, 7]: 2.519% | Change (%) Degradant ([5]; 40 ± 2 °C / RH 75 ± 5 %): 0.216% | Initial (%) Total Related substances ([5]; Table 7, initial): 2.173% | Initial (%) Degradant ([5]; Table 7, initial): 1.972% | increase in total related substances after 1 month ([5]; accelerated stability): ≥ 0.3%

Cc1nc2c(O[C@H]3CCOc4cc(F)cc(F)c43)cc(C(=O)N(C)C)cc2[nH]1 [Hydrochloride Salt (Amorphous Form)]
Amount of Change Degradant (%) [6]: 0.21% | After 24 hours Purity (%) [6]: 99.69% | Initial Purity (%) [6]: 99.94% | After 1 Month (%) Total Related substances ([1]; 90 % RH, 1 month): 0.335% | change ([1]; 90 % RH, 1 month): ≤ 0.15% | Initial (%) Total Related substances [1]: 0.207% | After 1 Month (%) Total Related substances [2]: 1.536% | Initial (%) Total Related substances [2]: 0.207% | Change in Quality (%) 60 °C (4 weeks) Purity [2]: -1.329% | Initial (%) Total Related substances [3]: 0.207% | After (%) Total Related substances [3]: 0.637% | After Ultraviolet Light Exposure (200 W hr/m2)(%) Total Related substances [4]: 0.313% | Initial (%) Total Related substances [4]: 0.207% | After 1 Month (%) Total Related substances [5, 7]: 0.467% | Initial (%) Total Related substances ([5]; Table 7, initial): 0.207% | Change in Quality (%) Accelerated (4 weeks) Purity [5]: -0.260%

Cc1nc2c(O[C@H]3CCOc4cc(F)cc(F)c43)cc(C(=O)N(C)C)cc2[nH]1 [Malate Salt]
After 24 hours Purity (%) [6]: Solid precipitated | Initial Purity (%) [6]: 99.98% | After 24 hours Degradant (%) [6]: Solid precipitated | solid precipitation / solution state [6]: solid precipitation; also recorded: solids were precipitated | absorb moisture and deliquesce / melted ([1]; 90 % RH): absorb moisture and deliquesce; also recorded: melted | Remarks ([1]; 90 % RH, 1 month): Melted | Initial (%) Degradant [1]: 0.004% | Initial (%) Total Related substances [1]: 0.146% | Change in Quality (%) 90 % RH (4 weeks) Degradant [1]: Melted | Change in Quality (%) 90 % RH (4 weeks) Purity [1]: Melted | After 1 Month (%) Degradant [2]: 1.320% | After 1 Month (%) Total Related substances [2]: 2.026% | Change (%) Degradant [2]: 1.316% | Initial (%) Degradant [2]: 0.004% | Initial (%) Total Related substances [2]: 0.146% | Change in Quality (%) 60 °C (4 weeks) Degradant [2]: 1.316% | Change in Quality (%) 60 °C (4 weeks) Purity [2]: -1.880% | Change (%) Degradant [3]: 0.031% | Initial (%) Degradant [3]: 0.004% | Initial (%) Total Related substances [3]: 0.146% | After (%) Degradant [3]: 0.035% | After (%) Total Related substances [3]: 0.263% | Change in Quality (%) Light (Visible) Degradant [3]: 0.031% | After Ultraviolet Light Exposure (200 W hr/m2)(%) Degradant [4]: 0.011% | After Ultraviolet Light Exposure (200 W hr/m2)(%) Total Related substances [4]: 0.172% | Change (%) Degradant [4]: 0.007% | Initial (%) Degradant [4]: 0.004% | Initial (%) Total Related substances [4]: 0.146% | Change in Quality (%) Light (Ultraviolet) Degradant ([4]; Table 12 summary): 0.007% | After 1 Month (%) Degradant [5, 7]: 0.049% | After 1 Month (%) Total Related substances [5, 7]: 0.236% | Change (%) Degradant ([5]; 40 ± 2 °C / RH 75 ± 5 %): 0.045% | Initial (%) Total Related substances ([5]; Table 7, initial): 0.146% | Initial (%) Degradant ([5]; Table 7, initial): 0.004% | Change in Quality (%) Accelerated (4 weeks) Degradant [5]: 0.045% | Change in Quality (%) Accelerated (4 weeks) Purity [5]: -0.090% | purity change after 1 month ([5]; accelerated stability): ≤ 0.1%

Cc1nc2c(O[C@H]3CCOc4cc(F)cc(F)c43)cc(C(=O)N(C)C)cc2[nH]1 [Methanesulfonate Salt (Amorphous Form)]
After 24 hours Purity (%) [6]: 99.34% | Initial Purity (%) [6]: 99.90% | After 24 hours Degradant (%) [6]: 0.552% | Initial Degradant (%) [6]: 0.063% | Amount of Change Degradant (%) ([6]; initial vs after 24 hours at 40 °C): 0.49% | absorb moisture and deliquesce / melted ([1]; 90 % RH): absorb moisture and deliquesce | Remarks ([1]; 90 % RH, 1 month): Melted | Initial (%) Degradant [1]: 0.284% | Initial (%) Total Related substances [1]: 0.530% | Change in Quality (%) 90 % RH (4 weeks) Degradant [1]: Melted | Change in Quality (%) 90 % RH (4 weeks) Purity [1]: Melted | total related substances increased after 1 month [2]: ≥ 5.0% | After 1 Month (%) Degradant [2]: 9.245% | After 1 Month (%) Total Related substances [2]: 12.245% | change in appearance, change in the color of the solid [2]: change in appearance | Change (%) Degradant [2]: 8.961% | Remarks [2]: Discolorat ion | Initial (%) Degradant [2]: 0.284% | Initial (%) Total Related substances [2]: 0.530% | Change in Quality (%) 60 °C (4 weeks) Degradant [2]: 8.961% | Change (%) Degradant [3]: 0.154% | Initial (%) Degradant [3]: 0.284% | Initial (%) Total Related substances [3]: 0.530% | After (%) Degradant [3]: 0.438% | After (%) Total Related substances [3]: 0.909% | Change in Quality (%) Light (Visible) Degradant [3]: 0.154% | After Ultraviolet Light Exposure (200 W hr/m2)(%) Degradant [4]: 0.366% | After Ultraviolet Light Exposure (200 W hr/m2)(%) Total Related substances [4]: 0.599% | Change (%) Degradant [4]: 0.082% | Initial (%) Degradant [4]: 0.284% | Initial (%) Total Related substances [4]: 0.530% | Change in Quality (%) Light (Ultraviolet) Degradant ([4]; Table 12 summary): 0.082% | Change in Quality (%) Light (Ultraviolet) Purity ([4]; Table 12 summary): 0.069% | After 1 Month (%) Degradant [5, 7]: 1.124% | After 1 Month (%) Total Related substances [5, 7]: 1.653% | Change (%) Degradant ([5]; 40 ± 2 °C / RH 75 ± 5 %): 0.840% | Initial (%) Total Related substances ([5]; Table 7, initial): 0.530% | Initial (%) Degradant ([5]; Table 7, initial): 0.284% | Change in Quality (%) Accelerated (4 weeks) Degradant [5]: 0.840% | Change in Quality (%) Accelerated (4 weeks) Purity [5]: -1.123% | increase in total related substances after 1 month ([5]; accelerated stability): ≥ 0.3%

Cc1nc2c(O[C@H]3CCOc4cc(F)cc(F)c43)cc(C(=O)N(C)C)cc2[nH]1 [Phosphate Salt]
After 24 hours Purity (%) [6]: Solid precipitated | Initial Purity (%) [6]: 99.97% | After 24 hours Degradant (%) [6]: Solid precipitated | Initial Degradant (%) [6]: 0.010% | solid precipitation / solution state [6]: solid precipitation | absorb moisture and deliquesce / melted ([1]; 90 % RH): absorb moisture and deliquesce | Remarks ([1]; 90 % RH, 1 month): Melted | Initial (%) Degradant [1]: 0.085% | Initial (%) Total Related substances [1]: 0.254% | After 1 Month (%) Degradant [2]: 1.668% | After 1 Month (%) Total Related substances [2]: 2.423% | Change (%) Degradant [2]: 1.583% | Initial (%) Degradant [2]: 0.085% | Initial (%) Total Related substances [2]: 0.254% | Change (%) Degradant [3]: 0.055% | Initial (%) Degradant [3]: 0.085% | Initial (%) Total Related substances [3]: 0.254% | After (%) Degradant [3]: 0.140% | After (%) Total Related substances [3]: 0.449% | After Ultraviolet Light Exposure (200 W hr/m2)(%) Degradant [4]: 0.096% | After Ultraviolet Light Exposure (200 W hr/m2)(%) Total Related substances [4]: 0.277% | Change (%) Degradant [4]: 0.011% | Initial (%) Degradant [4]: 0.085% | Initial (%) Total Related substances [4]: 0.254% | After 1 Month (%) Degradant [5, 7]: 0.205% | After 1 Month (%) Purity [5, 7]: 99.6% | After 1 Month (%) Total Related substances [5, 7]: 0.327% | Change (%) Degradant ([5]; 40 ± 2 °C / RH 75 ± 5 %): 0.120% | Initial (%) Purity ([5]; Table 7, initial): 99.7% | Initial (%) Total Related substances ([5]; Table 7, initial): 0.254% | Initial (%) Degradant ([5]; Table 7, initial): 0.085%

maleate
solid precipitation / solution state [6]: a solid precipitated | absorb moisture and deliquesce / melted ([1]; 90 % RH): deliquesced
